Source: patent US8598173B2, “1-[(6,7-substituted alkoxyquinoxalinyl)aminocarbonyl]-4-(hetero)arylpiperazine derivatives for treating tumors” (Korea Research Institute of Chemical Technology, priority 2004, dated 2013)
Read-outs that look alike come from different tables or passages of the source.

How the values were obtained:
Assay type in all cases: cell-based, human
Conditions in all cases: SRB method, 96 hours incubation
PANC-1 (pancreas) = test: Cell growth inhibition assay (SRB), PANC-1
Method: (§1) OVCAR-3, MCF-7, PC3, HepG2, A549, HT-29 and MKN-45 were grown in RPMI1640 medium (Invitrogen, Carlsbad, Calif.) supplemented with 10% fetal bovine serum (‘FBS’), 1 mM sodium pyruvate, 10 mM HEPES and 100 U/ml penicillin and […] streptomycin (‘P/S’). MDA-MB-231, HCT116, UMRC2, Caki-1, PANC-1 and HEK293 cells were maintained in Dulbecco's modified Eagle's medium (‘DMEM’, Invitrogen) supplemented with 10% FBS, P/S, 10 mM HEPES and 2 mM L-glutamine. HUVEC was maintained in M199 supplemented with basic fibroblast growth factor (‘bFGF’) […] and FBS 20%. All cells were incubated at 37° C. under humidified 5% CO2.
(§2) The growth inhibition of the substituted quinoxalin-piperazine compounds against a variety of human tumor cells was evaluated. The relative importance of particular substituent groups on the compounds was also studied. The substituted piperazine derivative compounds, prepared as described above, were tested, along with DMSO as a control.
(§3) The growth inhibition assay of various compounds against human tumor cell lines was performed using the Sulforhodamine B (‘SRB’) method (Skehan et al., J. National Cancer Institute, 1990, 82, 1107-1112). […] Triplicate wells were used for each treatment. The cells were incubated with the various compounds for 96 hours at 37° C. in a humidified 5% CO2 atmosphere. After 96-hour incubation, cells were fixed with 10% trichloroacetic acid (‘TCA’), incubated for 1 hour at 4° C., and washed 3 times with tap water. Subsequently cells were stained with 0.4% sulforhodamine B in 1% acetic acid for 30 minutes, washed 4 times with 1% acetic acid, and air-dried again. After 5 minutes agitation in 10 mM Tris solution, the absorbance of each well was measured at 530 nm using Benchmark Plus Microplate reader (Bio-Rad Laboratories, Hercules, Calif.).
(§4) To translate the OD530 values into the number of live cells in each well, the OD530 values were compared to those on standard OD530-versus-cell number curves generated for each cell line. The percent survival was calculated using the formula: % Survival=live cell number[test]/live cell number[control]×100
(§5) The IC50 values were calculated by non-linear regression analysis.

MDA-MB-231 (breast) = test: Cell growth inhibition assay (SRB), MDA-MB-231
Method: as §1, §2, §3, §4, §5

UMRC2 (kidney) = test: Cell growth inhibition assay (SRB), UMRC2
Method: as §1, §2, §3, §4, §5

[1] = PANC-1, read-out: Inhibition of cell growth (IC50, μM) by quinoxaline-piperazine compounds against human cancer cell lines: PANC-1
[2] = MDA-MB-231, read-out: Inhibition of cell growth (IC50, μM) by quinoxaline-piperazine compounds against human cancer cell lines: MDA-MB-231
[3] = UMRC2, read-out: Inhibition of cell growth (IC50, μM) by quinoxaline-piperazine compounds against human cancer cell lines: UMRC2
[4] = Homo sapiens, PANC-1, read-out: Inhibition of cell growth (IC50, μM) by quinoxaline-piperazine compounds against human cancer cell lines: PANC-1
[5] = Homo sapiens, MDA-MB-231, read-out: Inhibition of cell growth (IC50, μM) by quinoxaline-piperazine compounds against human cancer cell lines: MDA-MB-231
[6] = Homo sapiens, UMRC2, read-out: Inhibition of cell growth (IC50, μM) by quinoxaline-piperazine compounds against human cancer cell lines: UMRC2
[7] = PANC-1 (pancreas), read-out: IC50, PANC-1
[8] = MDA-MB-231 (breast), read-out: IC50, MDA-MB-231
[9] = UMRC2 (kidney), read-out: IC50, UMRC2
[10] = Homo sapiens, PANC-1 (pancreas), read-out: IC50, PANC-1
[11] = Homo sapiens, MDA-MB-231 (breast), read-out: IC50, MDA-MB-231
[12] = Homo sapiens, UMRC2 (kidney), read-out: IC50, UMRC2

SMILES	IC50 (PANC-1 (pancreas); [4]) [µM]	IC50 (MDA-MB-231 (breast); [5]) [µM]	IC50 (MDA-MB-231 (breast); [11]) [µM]	IC50 (UMRC2 (kidney); [6]) [µM]	IC50 (UMRC2 (kidney); [12]) [µM]	also measured
COc1nc2ccc(F)cc2nc1NC(=O)N1CCN(c2cccc(C(F)(F)F)c2)CC1 [Compound 11, 1-[(6-Fluoro-2-methoxyquinoxalin-3-yl)aminocarbonyl]-4-(3-trifluorotolyl)piperazine]	–	–	–	–	–	IC50 (PANC-1 (pancreas); [1]): 1.06 µM; IC50 (MDA-MB-231 (breast); [2]): 0.25 µM; IC50 (UMRC2 (kidney); [3]): 0.39 µM
COc1cccc(N2CCN(C(=O)Nc3nc4cc(Cl)ccc4nc3OC)CC2)c1 [Compound 24, 1-[(6-Chloro-2-methoxyquinoxalin-3-yl)aminocarbonyl]-4-(3-methoxyphenyl)piperazine]	1.66	0.41	–	0.68	–	–
COc1nc2ccc(Cl)cc2nc1NC(=O)N1CCN(c2cccc(C(F)(F)F)c2)CC1 [Compound 32, 1-[(6-Chloro-2-methoxyquinoxalin-3-yl)aminocarbonyl]-4-(3-trifluorotolyl)piperazine]	–	–	–	–	–	IC50 (PANC-1 (pancreas); [1]): > 1 µM; IC50 (MDA-MB-231 (breast); [2]): 1 µM; IC50 (UMRC2 (kidney); [3]): 1 µM
COc1nc2ccc(C)cc2nc1NC(=O)N1CCN(c2cccc(C(F)(F)F)c2)CC1 [Compound 53, 1-[(2-Methoxy-6-methylquinoxalin-3-yl)aminocarbonyl]-4-(3-trifluorotolyl)piperazine]	–	–	–	–	–	IC50 (PANC-1 (pancreas); [1]): > 1 µM; IC50 (MDA-MB-231 (breast); [2]): > 1 µM; IC50 (UMRC2 (kidney); [3]): > 1 µM
COc1cccc(N2CCN(C(=O)Nc3nc4cc(OC)ccc4nc3OC)CC2)c1 [Compound 66, 1-[(2,6-Dimethoxyquinoxalin-3-yl)aminocarbonyl]-4-(3-methoxyphenyl)piperazine]	> 1	> 1	–	> 1	–	–
COc1ccc2nc(OC)c(NC(=O)N3CCN(c4cccc(C)c4)CC3)nc2c1 [Compound 71, 1-[(2,6-Dimethoxyquinoxalin-3-yl)aminocarbonyl]-4-(3-methylphenyl)piperazine]	1.43	0.4	–	0.63	–	–
COc1cccc(N2CCN(C(=O)Nc3nc4ccc(F)cc4nc3OC)CC2)c1 [Compound 87, 1-[(6-Fluoro-3-methoxyquinoxalin-2-yl)aminocarbonyl]-4-(3-methoxyphenyl)piperazine]	> 1	> 1	–	> 1	–	–
COc1nc2cc(F)ccc2nc1NC(=O)N1CCN(c2cccc(C(F)(F)F)c2)CC1 [Compound 95, 1-[(6-Fluoro-3-methoxyquinoxalin-2-yl)aminocarbonyl]-4-(3-trifluorotoly)piperazine]	–	–	–	–	–	IC50 (PANC-1 (pancreas); [7]): > 1 µM; IC50 (MDA-MB-231 (breast); [8]): > 1 µM; IC50 (UMRC2 (kidney); [9]): > 1 µM
COc1nc2cc(Cl)ccc2nc1NC(=O)N1CCN(c2cccc(C(F)(F)F)c2)CC1 [Compound 116, 1-[(6-Chloro-3-methoxyquinoxalin-2-yl)aminocarbonyl]-4-(3-trifluorotolyl)piperazine]	–	–	–	–	–	IC50 (PANC-1 (pancreas); [7]): > 1 µM; IC50 (MDA-MB-231 (breast); [8]): > 1 µM; IC50 (UMRC2 (kidney); [9]): > 1 µM
COc1cccc(N2CCN(C(=O)Nc3nc4ccc(OC)cc4nc3OC)CC2)c1 [Compound 150, 1-[(3,6-Dimethoxyquinoxalin-2-yl)aminocarbonyl]-4-(3-methoxyphenyl)piperazine]	–	–	≥ 1	–	> 1	IC50 (PANC-1 (pancreas); [10]): > 1 µM
COc1ccc2nc(NC(=O)N3CCN(c4cccc(C)c4)CC3)c(OC)nc2c1 [Compound 155, 1-[(3,6-Dimethoxyquinoxalin-2-yl)aminocarbonyl]-4-(3-methylphenyl)piperazine]	–	–	0.23	–	0.39	IC50 (PANC-1 (pancreas); [10]): 0.96 µM
COc1ccc2nc(NC(=O)N3CCN(c4cccc(C(F)(F)F)c4)CC3)c(OC)nc2c1 [Compound 158, 1-[(3,6-Dimethoxyquinoxalin-2-yl)aminocarbonyl]-4-(3-trifluorotoly)piperazine]	–	–	–	–	–	IC50 (PANC-1 (pancreas); [7]): > 1 µM; IC50 (MDA-MB-231 (breast); [8]): > 1 µM; IC50 (UMRC2 (kidney); [9]): > 1 µM
COc1ccc2nc(NC(=O)N3CCN(c4ccccn4)CC3)c(OC)nc2c1 [Compound 167, 1-[(3,6-Dimethoxyquinoxalin-2-yl)aminocarbonyl]-4-(2-pyridyl)piperazine]	–	–	> 1	–	> 1	IC50 (PANC-1 (pancreas); [10]): > 1 µM

Further lines, with some results ahead:

IC50 (PANC-1 (pancreas); [4]) [µM]	IC50 (MDA-MB-231 (breast); [5]) [µM]	IC50 (MDA-MB-231 (breast); [11]) [µM]	SMILES	IC50 (UMRC2 (kidney); [6]) [µM]	IC50 (UMRC2 (kidney); [12]) [µM]	also measured
0.95	0.16	–	COc1nc2ccc(Cl)cc2nc1NC(=O)N1CCN(c2cccc(C)c2)CC1 [Compound 29, 1-[(6-Chloro-2-methoxyquinoxalin-3-yl)aminocarbonyl]-4-(3-methylphenyl)piperazine]	0.3	–	–
0.93	0.17	–	COc1nc2ccc(Cl)cc2nc1NC(=O)N1CCN(c2cccc(Cl)c2)CC1 [Compound 36, 1-[(6-Chloro-2-methoxyquinoxalin-3-yl)aminocarbonyl]-4-(3-chlorophenyl)piperazine]	0.31	–	–
1.04	0.22	–	COc1nc2ccc(C)cc2nc1NC(=O)N1CCN(c2cccc(C)c2)CC1 [Compound 50, 1-[(2-Methoxy-6-methylquinoxalin-3-yl)aminocarbonyl]-4-(3-methylphenyl)piperazine]	0.4	–	–
0.64	0.14	–	COc1nc2ccc(C)cc2nc1NC(=O)N1CCN(c2cccc(Cl)c2)CC1 [Compound 57, 1-[(2-Methoxy-6-methylquinoxalin-3-yl)aminocarbonyl]-4-(3-chlorophenyl)piperazine]	0.24	–	–
> 1	> 1	–	COc1ccc2nc(OC)c(NC(=O)N3CCN(c4cccc(Cl)c4)CC3)nc2c1 [Compound 78, 1-[(2,6-Dimethoxyquinoxalin-3-yl)aminocarbonyl]-4-(3-chlorophenyl)piperazine]	> 1	–	–
0.95	0.21	–	COc1nc2cc(F)ccc2nc1NC(=O)N1CCN(c2cccc(C)c2)CC1 [Compound 92, 1-[(6-Fluoro-3-methoxyquinoxalin-2-yl)aminocarbonyl]-4-(3-methylphenyl)piperazine]	0.37	–	–
–	–	> 1	COc1cccc(N2CCN(C(=O)Nc3nc4ccc(Cl)cc4nc3OC)CC2)c1 [Compound 108, 1-[(6-Chloro-3-methoxyquinoxalin-2-yl)aminocarbonyl]-4-(3-methoxyphenyl)piperazine]	–	> 1	IC50 (PANC-1 (pancreas); [10]): > 1 µM
–	–	0.3	COc1nc2cc(Cl)ccc2nc1NC(=O)N1CCN(c2cccc(C)c2)CC1 [Compound 113, 1-[(6-Chloro-3-methoxyquinoxalin-2-yl)aminocarbonyl]-4-(3-methylphenyl)piperazine]	–	0.4	IC50 (PANC-1 (pancreas); [10]): 0.61 µM
–	–	> 1	COc1cccc(N2CCN(C(=O)Nc3nc4ccc(C)cc4nc3OC)CC2)c1 [Compound 129, 1-[(3-Methoxy-6-methylquinoxalin-2-yl)aminocarbonyl]-4-(3-methoxyphenyl)piperazine]	–	> 1	IC50 (PANC-1 (pancreas); [10]): > 1 µM
–	–	0.26	COc1nc2cc(C)ccc2nc1NC(=O)N1CCN(c2cccc(C)c2)CC1 [Compound 134, 1-[(3-Methoxy-6-methylquinoxalin-2-yl)aminocarbonyl]-4-(3-methylphenyl)piperazine]	–	0.26	–
–	–	0.25	COc1nc2cc(C)ccc2nc1NC(=O)N1CCN(c2cccc(Cl)c2)CC1 [Compound 141, 1-[(3-Methoxy-6-methylquinoxalin-2-yl)aminocarbonyl]-4-(3-chlorophenyl)piperazine]	–	0.25	–
–	–	0.23	COc1ccc2nc(NC(=O)N3CCN(c4cccc(Cl)c4)CC3)c(OC)nc2c1 [Compound 162, 1-[(3,6-Dimethoxyquinoxalin-2-yl)aminocarbonyl]-4-(3-chlorophenyl)piperazine]	–	0.29	IC50 (PANC-1 (pancreas); [10]): 0.46 µM
